Measured values published in US4629723A, “Potent thymopentin analogs” (Ortho Pharmaceutical Corporation, priority 1984, dated 1986).
Non-standard residues stand in square brackets, D forms with d. Residues, ends and D or L forms follow the SMILES beside them. No end group written: not given here. Aib = CC(C)(N)C(=O)O

Columns and labels:
intact CEM cell = test: Cyclic-GMP assay; format: cell-based, human; conditions: for Result on the cyclic-GMP assay in words: in comparison with thymopentin; for Concentration of c-GMP Produced: CEM cells, 4-5 min, 37° C.
From the text: This biological activity is evidenced by an assay measuring induction of cyclic-GMP production in a human T-cell line in comparison with thymopoietin. The induction of c-GMP production by a test peptide in this assay indicates the ability of the test peptide to bind to the thymopoietin receptor site on the cell and induce thymopoietin-like biological activity. […] Because of the expense of preparing peptides and the rapid degradation of peptides often observed in living systems, peptides such as those herein which have increased potency are greatly prized.
This assay measures the ability of the test peptide to bind to the cell membrane receptor of the intact CEM cell and selectively stimulate production of cyclic-GMP, as does thymopoietin itself.
The CEM cell line was obtained from the American Type Culture Collection and was cultured in RPMI-1640 medium supplemented with 10% heat-inactivated fetal bovine serum, 10% heat-inactivated horse serum, 2 mM L-glutamine, and 50 µg/ml gentamycin at 37° C. in a humid atmosphere containing 5 percent CO2, to a final density of 3-4×10^6 cells/ml. At this concentration, the cells were in the early stationary phase of the growth curve and were judged greater than 90% viable by trypan blue exclusion. The cells were grown for four days and harvested. After harvesting, the cells were washed three times in PBS and were resuspended in RPMI-1640 medium at a concentration of 3.12×10^7 cells/ml. After the cells had been allowed to equilibrate at 37° C. for 30 min, various concentrations of the test peptides were added in a volume of 25 μl of medium to 1 ml of cells, the initial concentration of test compound added being selected to yield the desired final concentration of test peptide in the medium. The test peptide was mixed instantly with the cell suspension. The incubation was allowed to proceed in a shaking water bath at 37° C. for 4-5 min and was then terminated by addition of ice-cold trichloroacetic acid (10%; 1 ml).
The cells in TCA were then homogenized and sonicated to release cyclic nucleotide. The resulting suspension was centrifuged at 3000 g for 20 min at 4° C. and the resulting precipitate was dissolved in 0.1N NaOH and sonicated for a further 30 minutes, after which the protein content was determined by the method of Cadman, et al., Anal. Biochem., 96, 21-23 (1979). The TCA was removed from the supernatant fraction by extracting four times with 5 ml of water-saturated diethyl ether. After the final extraction, the remaining traces of ether were removed from the supernatant fraction by heating it for 10 min in a 50° C. water bath. After lyophilization of the extracted supernatant fraction, it was reconstituted in 50 mM acetate buffer, ph 6.2, for radioimmunoassay of cyclic nucleotide using the assay kit NEX-133, New England Nuclear, Boston, MA 02113.
A conventional competition radioimmunoassay against radio labelled cyclic GMP was conducted to determine the amount of cyclic GMP induced by each concentration of test peptide. Results are shown in FIG. 1 and in the following table, in which representative subject peptides have been assayed in comparison with thymopentin (designated "TP-5") and a "nonsense" peptide H-ASP-ARG-TYR-LYS-VAL-OH.

[1] = tested on: isolated thymopoietin cell surface receptor protein from CEM cells; conditions: for Displacement of 125I-TP relative to that caused by thymopoietin self-displacement: at equivalent concentrations, 2.3×10^-10 M 125I-TP, 4 μg receptor protein, with TP 37-45 nonapeptide, 12 h; for Displacement of 125I-TP, in words: comparison peptides, competition experiments
[2] = Concentration of Peptide 10^0 μg/ml
[3] = Concentration of Peptide 10^1 μg/ml
[4] = Concentration of Peptide 10^3 μg/ml
[5] = Concentration of Peptide 10^4 μg/ml

Molecule: CC(=O)N[C@@H](CCCNC(=N)N)C(=O)NC(C)(C)C(=O)N[C@@H](CC(=O)O)C(=O)N[C@H](C(=O)N[C@@H](Cc1ccccc1)C(N)=O)C(C)C [N-α-acetyl-ARG-AIB-ASP-VAL-PHE-NH2, Acetyl-Arginyl-α-Aminoisobutyryl-Aspartyl-Valyl-Phenylalaminamide] (Ac-R[Aib]DVF-NH2)
- Result on the cyclic-GMP assay in words (intact CEM cell): superior results

Molecule: CC(C)[C@H](NC(=O)[C@H](CC(=O)O)NC(=O)[C@H](CCCCN)NC(=O)[C@@H](N)CCCNC(=N)N)C(=O)N[C@@H](Cc1c[nH]cn1)C(=O)O [H-ARG-LYS-ASP-VAL-HIS-OH, Arginyl-Lysyl-Aspartyl-Valyl-Histidine] (H-RKDVH-OH)
- Concentration of c-GMP Produced (intact CEM cell; [2]): 0 picomoles/ml
- Concentration of c-GMP Produced (intact CEM cell; [3]): 9 picomoles/ml
- Displacement of 125I-TP relative to that caused by thymopoietin self-displacement [1]: at least 50%

Molecule: β-endorphin (YGGFMTSEKSQTPLVTLFKNAIIKNAYKKGE; Beta-endorphin; UniProt P01189 237-267, looked up)
- Displacement of 125I-TP, in words [1]: no detectable displacement

Molecule: C[C@H](N)C(=O)NCC(=O)N[C@H]1CSSC[C@@H](C(=O)O)NC(=O)[C@H](CO)NC(=O)[C@H]([C@@H](C)O)NC(=O)[C@H](Cc2ccccc2)NC(=O)[C@H]([C@@H](C)O)NC(=O)[C@H](CCCCN)NC(=O)[C@H](Cc2c[nH]c3ccccc23)NC(=O)[C@H](Cc2ccccc2)NC(=O)[C@H](Cc2ccccc2)NC(=O)[C@H](CC(N)=O)NC(=O)[C@H](CCCCN)NC1=O [somatostatin]
- Displacement of 125I-TP, in words [1]: no detectable displacement

Molecule: CC(C)[C@H](NC(=O)[C@H](CC(=O)O)NC(=O)[C@@H]1CCCN1C(=O)[C@@H](N)CCCNC(=N)N)C(=O)N[C@@H](Cc1ccccc1)C(=O)O [H--ARG--PRO--ASP--VAL--PHE--OH, Arginyl-Prolyl-Aspartyl-Valyl-Phenylalanine] (H-RPDVF-OH)
- Concentration of c-GMP Produced (intact CEM cell; [2]): 0 picomoles/ml
- Concentration of c-GMP Produced (intact CEM cell; [3]): 12 picomoles/ml
- Displacement of 125I-TP relative to that caused by thymopoietin self-displacement [1]: at least 50%

Molecule: CC(C)[C@H](NC(=O)[C@H](CCCCN)NC(=O)[C@H](Cc1ccc(O)cc1)NC(=O)[C@H](CCCNC(=N)N)NC(=O)[C@@H](N)CC(=O)O)C(=O)O [H--ASP--ARG--TYR--LYS--VAL--OH, H-ASP-ARG-TYR-LYS-VAL-OH, reference compound] (H-DRYKV-OH)
- Concentration of c-GMP Produced (intact CEM cell; [4]): 0 picomoles/ml
- Concentration of c-GMP Produced (intact CEM cell; [5]): 0 picomoles/ml
- Concentration of c-GMP Produced (intact CEM cell; Concentration of Peptide 10^5 μg/ml): 0 picomoles/ml

Molecule: ubiquitin
- Displacement of 125I-TP, in words [1]: no detectable displacement

Molecule: facteur thymique serique [FTS]
- Displacement of 125I-TP, in words [1]: no detectable displacement

Molecule: corticotropin-releasing factor (SEEPPISLDLTFHLLREVLEMARAEQLAQQAHSNRKLMEII; ends and bridges not checked; UniProt P06850 154-194, looked up) [CRF]
- Displacement of 125I-TP, in words [1]: no detectable displacement

Molecule: growth hormone
- Displacement of 125I-TP, in words [1]: no detectable displacement

Molecule: CC(C)[C@H](NC(=O)[C@H](CC(=O)O)NC(=O)[C@H](CCCCN)NC(=O)[C@@H](N)CCCNC(=N)N)C(=O)N[C@@H](Cc1c[nH]c2ccccc12)C(=O)O [H-ARG-LYS-ASP-VAL-TRP-OH, Arginyl-Lysyl-Aspartyl-Valyl-Tryptophan] (H-RKDVW-OH)
- Result on the cyclic-GMP assay in words (intact CEM cell): superior results
- Displacement of 125I-TP relative to that caused by thymopoietin self-displacement [1]: at least 50%

Molecule: CC(C)[C@H](NC(=O)[C@H](CC(=O)O)NC(=O)[C@H](CCCCN)NC(=O)[C@@H](N)CCCNC(=N)N)C(=O)N[C@@H](Cc1ccccc1)C(=O)O [H-ARG-LYS-ASP-VAL-PHE-OH, Arginyl-Lysyl-Aspartyl-Valyl-Phenylalanine] (H-RKDVF-OH)
- Concentration of c-GMP Produced (intact CEM cell; [2]): 6 picomoles/ml
- Concentration of c-GMP Produced (intact CEM cell; [3]): 9 picomoles/ml
- Displacement of 125I-TP relative to that caused by thymopoietin self-displacement [1]: at least 50%

Molecule: CC(C)[C@H](NC(=O)[C@H](CC(=O)O)NC(=O)[C@H](CCCCN)NC(=O)[C@@H](N)CCCN=C(N)N)C(=O)N[C@@H](Cc1ccc(O)cc1)C(=O)O [TP-5, H--ARG--LYS--ASP--VAL--TYR--OH, reference compound] (H-RKDVY-OH)
- Concentration of c-GMP Produced (intact CEM cell; [2]): 0 picomoles/ml
- Concentration of c-GMP Produced (intact CEM cell; [3]): 4.5 picomoles/ml
- Concentration of c-GMP Produced (intact CEM cell; Concentration of Peptide 10^2 μg/ml): 9 picomoles/ml
- Concentration of c-GMP Produced (intact CEM cell; [4]): 12 picomoles/ml
- Concentration of c-GMP Produced (intact CEM cell; [5]): 14 picomoles/ml

Molecule: adrenocorticotropic hormone (SYSMEHFRWGKPVGKKRRPVKVYPNGAEDESAEAFPLEF; Corticotropin; UniProt P01189 138-176, looked up) [ACTH]
- Displacement of 125I-TP, in words [1]: no detectable displacement

Molecule: CC(=O)N[C@@H](CCCNC(=N)N)C(=O)N1CCC[C@H]1C(=O)N[C@@H](CC(=O)O)C(=O)N[C@H](C(=O)N[C@@H](Cc1ccccc1)C(=O)O)C(C)C [N-α-acetyl-ARG-PRO-ASP-VAL-PHE-OH, N^α -Acetyl-Arginyl-Prolyl-Aspartyl-Valyl-Phenylaline] (Ac-RPDVF-OH)
- Concentration of c-GMP Produced (intact CEM cell; [2]): 7 picomoles/ml
- Concentration of c-GMP Produced (intact CEM cell; [3]): 15 picomoles/ml

Molecule: CC(C)[C@H](NC(=O)[C@H](CC(=O)O)NC(=O)[C@H](CCCCN)NC(=O)[C@@H](N)CCCNC(=N)N)C(=O)N[C@@H](Cc1c[nH]c2ccccc12)C(N)=O [H-ARG-LYS-ASP-VAL-TRP-NH2, Arginyl-Lysyl-Aspartyl-Valyl-Tryptophan amide] (H-RKDVW-NH2)
- Result on the cyclic-GMP assay in words (intact CEM cell): superior results
- Displacement of 125I-TP relative to that caused by thymopoietin self-displacement [1]: at least 50%

Molecule: CC(=O)N[C@@H](CCCNC(=N)N)C(=O)N1CCC[C@H]1C(=O)N[C@@H](CC(=O)O)C(=O)N[C@H](C(=O)N[C@@H](Cc1ccccc1)C(N)=O)C(C)C [N-α-acetyl-ARG-PRO-ASP-VAL-PHE-NH2, Acetyl-Arginyl-Prolyl-Aspartyl-Valyl-Phenylalanine-amide] (Ac-RPDVF-NH2)
- Result on the cyclic-GMP assay in words (intact CEM cell): superior results

Molecule: N^α -Acetyl-Arginyl-3,4-dehydro-Prolyl-Aspartyl-Valyl-Tyrosineamide
- Result on the cyclic-GMP assay in words (intact CEM cell): superior results
